Source: US9290485B2, “N-((6-amino-pyridin-3-yl)methyl)-heteroaryl-carboxamides” (NOVARTIS AG, priority 2010, dated 2016)

Target: human plasma kallikrein (Homo sapiens (Human), UniProt P03952)
Settings: human plasma kallikrein 25 pM, substrate 0.5 uM, 1 hour pre-incubation at room temperature, read at t=60 min

Sequence of human plasma kallikrein (P03952 whole entry, looked up): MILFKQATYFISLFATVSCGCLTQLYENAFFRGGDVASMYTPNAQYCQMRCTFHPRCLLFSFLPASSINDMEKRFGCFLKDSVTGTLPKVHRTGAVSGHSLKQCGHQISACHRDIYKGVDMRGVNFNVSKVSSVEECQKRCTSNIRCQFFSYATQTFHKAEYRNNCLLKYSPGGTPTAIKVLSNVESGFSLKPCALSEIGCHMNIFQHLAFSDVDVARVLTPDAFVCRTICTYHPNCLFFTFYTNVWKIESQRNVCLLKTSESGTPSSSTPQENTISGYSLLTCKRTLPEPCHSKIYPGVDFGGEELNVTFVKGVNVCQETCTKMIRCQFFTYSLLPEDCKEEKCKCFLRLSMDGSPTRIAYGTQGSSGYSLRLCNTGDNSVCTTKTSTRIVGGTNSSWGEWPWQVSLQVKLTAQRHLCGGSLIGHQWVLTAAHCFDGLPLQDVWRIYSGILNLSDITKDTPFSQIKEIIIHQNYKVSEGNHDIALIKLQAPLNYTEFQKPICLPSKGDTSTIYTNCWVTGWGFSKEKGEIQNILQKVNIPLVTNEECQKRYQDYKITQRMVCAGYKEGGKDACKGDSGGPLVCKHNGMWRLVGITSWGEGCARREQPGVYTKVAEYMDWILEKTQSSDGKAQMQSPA
Sequence of human plasma kallikrein (P03952 whole entry partner, looked up): as the sequence (P03952 whole entry, looked up) above

Compound | IC50 [µM]
Cc1noc(-c2ccc(Cn3cc(C(=O)NCc4c(C)cc(N)nc4C)cn3)cc2)n1 [Example 91, N-((6-amino-2,4-dimethylpyridin-3-yl)methyl)-1-(4-(3-methyl-1,2,4-oxadiazol-5-yl)benzyl)-1H-pyrazole-4-carboxamide] | 0.133
Cc1cc(N)nc(C)c1CNC(=O)c1cnn(Cc2cccc(Cl)c2)c1 [Example 92, N-((6-amino-2,4-dimethylpyridin-3-yl)methyl)-1-(3-chlorobenzyl)-1H-pyrazole-4-carboxamide] | 0.867
Cc1cc(N)nc(C)c1CNC(=O)c1cnn(Cc2ccc(F)cc2F)c1 [Example 93, N-((6-amino-2,4-dimethylpyridin-3-yl)methyl)-1-(2,4-difluorobenzyl)-1H-pyrazole-4-carboxamide] | 0.674
Cc1cc(N)nc(C)c1CNC(=O)c1cnn(Cc2ccc(OCc3ccccc3)cc2)c1 [Example 94, N-((6-amino-2,4-dimethylpyridin-3-yl)methyl)-1-(4-(benzyloxy)benzyl)-1H-pyrazole-4-carboxamide] | 0.0021
Cc1cc(N)nc(C)c1CNC(=O)c1cnn(Cc2cccc3c2OCCCO3)c1 [Example 95, N-((6-amino-2,4-dimethylpyridin-3-yl)methyl)-1-((3,4-dihydro-2H-benzo[b][1,4]dioxepin-6-yl)methyl)-1H-pyrazole-4-carboxamide] | 0.485
Cc1cc(N)nc(C)c1CNC(=O)c1cnn(Cc2ccc(Cl)cc2)c1 [Example 96, N-((6-amino-2,4-dimethylpyridin-3-yl)methyl)-1-(4-chlorobenzyl)-1H-pyrazole-4-carboxamide] | 0.291
Cc1nc(Cn2cc(C(=O)NCc3c(C)cc(N)nc3C)cn2)cs1 [Example 97, N-((6-amino-2,4-dimethylpyridin-3-yl)methyl)-1-((2-methylthiazol-4-yl)methyl)-1H-pyrazole-4-carboxamide] | 1.9
Cc1cc(N)nc(C)c1CNC(=O)c1cnn(Cc2cccnc2)c1 [Example 98, N-((6-amino-2,4-dimethylpyridin-3-yl)methyl)-1-(pyridin-3-ylmethyl)-1H-pyrazole-4-carboxamide] | 3.8
Cc1cc(N)nc(C)c1CNC(=O)c1cnn(C(C)c2ccccc2)c1 (stereo not drawn) [Example 100, N-((6-amino-2,4-dimethylpyridin-3-yl)methyl)-1-(1-phenylethyl)-1H-pyrazole-4-carboxamide] | 0.642
Cc1cc(N)nc(C)c1CNC(=O)c1cnn(Cc2ccc3c(c2)nnn3C)c1 [Example 101, N-((6-amino-2,4-dimethylpyridin-3-yl)methyl)-1-((1-methyl-1H-benzo[d][1,2,3]triazol-5-yl)methyl)-1H-pyrazole-4-carboxamide] | 0.07
Cc1cc(N)nc(C)c1CNC(=O)c1cnn(Cc2cccc(C(N)=O)c2)c1 [Example 102, N-((6-amino-2,4-dimethylpyridin-3-yl)methyl)-1-(3-carbamoylbenzyl)-1H-pyrazole-4-carboxamide] | 4
Cc1cc(N)nc(C)c1CNC(=O)c1cnn(Cc2ccc3c(c2)OCO3)c1 [Example 103, N-((6-amino-2,4-dimethylpyridin-3-yl)methyl)-1-(benzo[d][1,3]dioxol-5-ylmethyl)-1H-pyrazole-4-carboxamide] | 0.299
Cc1cc(N)nc(C)c1CNC(=O)c1cnn(Cc2nc3ccccc3s2)c1 [Example 105, N-((6-amino-2,4-dimethylpyridin-3-yl)methyl)-1-(benzo[d]thiazol-2-ylmethyl)-1H-pyrazole-4-carboxamide] | 0.168
Cc1cc(N)nc(C)c1CNC(=O)c1cnn(Cc2noc3ccccc23)c1 [Example 106, N-((6-amino-2,4-dimethylpyridin-3-yl)methyl)-1-(benzo[d]isoxazol-3-ylmethyl)-1H-pyrazole-4-carboxamide] | 0.415
Cc1cc(N)nc(C)c1CNC(=O)c1cn(Cc2ccccc2C#N)c2ccccc12 [Example 107, N-((6-amino-2,4-dimethylpyridin-3-yl)methyl)-1-(2-cyanobenzyl)-1H-indole-3-carboxamide] | 1.8
